The test system of test [1] is DLD1 BRCA2−/− cells. Nature of the test: 6-day cytotoxicity assay of warheads. Format: cell-based. The text has this: (§1) MMAE=negative control, microtubule-inhibitor warhead.
(§2) Additionally, HR-deficiency increases sensitivity to the SG3932 warhead. […] Cell viability was reduced in both wild-type and BRCA2−/− cells when treated with the MMAE warhead.

Test [2] deals with DLD1 wt cells. Nature of the test: 6-day cytotoxicity assay of warheads. It is filed as cell-based. Conditions: wild-type cells.
Text: as §1, §2

Cell viability data for 1 compound are collected here from patent publication US20240239894A1, “THERAPEUTIC BINDING MOLECULES” (MedImmune Limited, priority 2020, published 2024).

Non-standard residues stand in square brackets, D forms with d. Residues, ends and D or L forms follow the SMILES beside them. *: point of attachment. Dolaproine = CO[C@@H]([C@@H]1CCCN1)[C@@H](C)C(=O)O; Dil = CC[C@H](C)[C@H](NC)[C@@H](CC(=O)O)OC; X1 = C[C@@H](N*)[C@@H](O)c1ccccc1; NMeV = CN[C@H](C(=O)O)C(C)C

With `CC[C@H](C)[C@@H]([C@@H](CC(=O)N1CCC[C@H]1[C@H](OC)[C@@H](C)C(=O)N[C@H](C)[C@@H](O)c1ccccc1)OC)N(C)C(=O)[C@@H](NC(=O)[C@@H](NC)C(C)C)C(C)C` [MMAE] (H-[NMeV]V[Dil][Dolaproine]-X1), the cell viability entry in test [1] and in test [2] was “reduced” each time.
